# System: Hep3b cells
# Experiment: in vitro mRNA delivery screening of ionizable lipid LNPs with mRNA encoding firefly luciferase
# Type: cell-based
# Settings: LNPs of compound/DOPE/cholesterol/PEG-lipid at ratios 20:30:40:0.75, 40:30:40:0.75 and 60:30:40:0.75, Hep3b cells (FIGS. 1-3)
# Excerpt: FIG. 1 illustrates the results of in vitro mRNA delivery screening of ionizable lipids in Hep3b cells at a ratio of 20:30:40:0.75 (compound/DOPE/cholesterol/PEG-lipid).
# FIG. 2 illustrates the results of in vitro mRNA delivery screening of ionizable lipids in Hep3b cells at a ratio of 40:30:40:0.75 (compound/DOPE/cholesterol/PEG-lipid).
# FIG. 3 illustrates the results of in vitro mRNA delivery screening of ionizable lipids in Hep3b cells at a ratio of 60:30:40:0.75 (compound/DOPE/cholesterol/PEG-lipid).
# Phosphates and phosporamide lipid-like compounds First, forty ionizable lipids were synthesized. Then, these ionizable lipids were formulated with DOPE/cholesterol/PEG-lipid at three different ratios (20:30:40:0.75, 40:30:40:0.75, and 60:30:40:0.75) to prepare lipid nanoparticles (LNPs) and screened in Hep3b cells using mRNA-encoding firefly luciferase.
smiles,measurement,value
CCCCCCCC/C=C\CCCCCCCCOP(=O)(OCCCCCCCC/C=C\CCCCCCCC)OCCN(C)C [ZYB20200113-1],mRNA delivery effectiveness,more effective for mRNA delivery than other ionizable lipids

# — patent US20230303598A1, “BIOINSPIRED LIPID DERIVATIVES AND USES THEREOF” (Ohio State Innovation Foundation, priority 2020, published 2023)
